From patent publication US20230303589A1, “CRYSTALLINE FORMS OF CFTR MODULATORS” (Vertex Pharmaceuticals Incorporated, priority 2020, published 2023)

Experiments:
CFTR = CFTR (Homo sapiens, UniProt P13569); assay: Membrane potential dye assay in human intestinal epithelial enteroid cells; type: cell-based; details: CFTR-mediated chloride transport; 18-24 h incubation; acute 10 µM forskolin and 300 nM Compound III
Protocol: Base medium (ADF+++) consisted of Advanced DMEM/Ham’s F12, 2 mM Glutamax, 10 mM HEPES, […] penicillin/streptomycin.
Intestinal enteroid maintenance medium (IEMM) consisted of ADF+++, 1x B27 supplement, 1x N2 supplement, 1.25 mM N-acetyl cysteine, 10 mM Nicotinamide, 50 ng/mL hEGF, 10 nM Gastrin, 1 µg/mL hR-spondin-1, 100 ng/mL hNoggin, TGF-b type 1 inhibitor A-83-01, 100 µg/mL Primocin, 10 µM P38 MAPK inhibitor SB202190.
Bath 1 Buffer consisted of 1 mM MgC12, 160 mM NaCl, 4.5 mM KC1, 10 mM HEPES, 10 mM Glucose, 2 mM CaCl2.
Chloride Free Buffer consisted of 1 mM Magnesium Gluconate, 2 mM Calcium Gluconate, 4.5 mM Potassium Gluconate, 160 mM Sodium Gluconate, 10 mM HEPES, 10 mM Glucose.
Bath1 Dye Solution consisted of Bath 1 Buffer, 0.04% Pluronic F127, 20 µM Methyl Oxonol, 30 µM CaCCinh-A01, 30 µM Chicago Sky Blue. […]
Enteroid cells were incubated with test compound in IEMM for 18-24 h at 37° C., 95% humidity and 5% CO2. […] Chloride transport was initiated by addition of Chloride Free Dye Stimulation Solution and the fluorescence signal was read for 15 min. […] Chloride transport was then expressed as a percentage of the chloride transport following treatment with 3 µM Compound I, 3 µM Compound II, and 300 nM acute Compound III triple combination control (% Activity).

[1] = Pharmacokinetics after a single oral administration in male monkeys; type: in vivo; details: nominal dose 1 mg/kg, mean oral bioavailability
F508del CFTR [2] = biological target: T1, F508del CFTR (Homo sapiens, UniProt P13569, DEL508-508); assay: Ussing chamber chloride transport, F508del/F508del HBE; type: cell-based; details: for chloride transport: treatment for 16 to 24 h
T1 construct: HBE cells derived from 3 F508del homozygous donors; endogenous in cells; host or cells: HBE cells from 3 F508del homozygous donors
Protocol: (§1) Ussing chamber studies were conducted to measure F508del CFTR-mediated chloride transport in HBE cells derived from 3 F508del homozygous donors and 5 F508del/MF donors (G542X, 3 donors; E585X, 1 donor; 3905InsT, 1 donor). As a positive control, maximally effective concentrations of N-(benzenesulfonyl)-6-[3-[2-[1-(trifluoromethyl)cyclopropyl] ethoxy] pyrazol-1-yl]-2-[ ( 4S)-2,2,4-trimethylpyrrolidin-1-yl] pyridine-3-carboxamide (see WO 2018/064632) and N-[(6-amino-2-pyridyl)sulfonyl]-6-(3-fluoro-5-isobutoxy-phenyl)-2-[(4S)-2,2,4-trimethylpyrrolidin-1-yl]pyridine-3-carboxamide (see WO 2016/057572) in combination with Compound II/Compound III were included in each experiment.

[3] = Systemic exposure with increasing dose and repeated oral administration for 28 d in dogs; type: in vivo
[4] = Safety analysis of an ongoing clinical study; type: in vivo
Protocol: A safety analysis of an ongoing clinical study was performed for 37 subjects in Cohorts A1 to A5, 33 subjects in Cohort B, and 17 subjects in Cohort C, who were exposed to at least 1 dose of study drug (Compound I or placebo) as a monotherapy and as part of a triple combination with Compound II or Compound III.

[5] = Systemic exposure with increasing dose and repeated oral administration for 28 d in rats; type: in vivo
F508del CFTR [6] = biological target: T1, F508del CFTR; assay: Ussing chamber chloride transport, F508del/MF HBE; type: cell-based; details: for chloride transport: treatment for 16 to 24 h
Protocol: as §1

[7] = Pharmacokinetics after a single oral administration in male rats; type: in vivo; details: nominal dose 3 mg/kg, mean oral bioavailability
[8] = Pharmacokinetics after a single oral administration in male dogs; type: in vivo; details: nominal dose 1 mg/kg, mean oral bioavailability
[9] = with a fixed combination of Compound II
[10] = with a fixed concentration of Compound III or Compound II/Compound III

T1 sequence (P13569 with tags, fused parts or gaps DEL508-508): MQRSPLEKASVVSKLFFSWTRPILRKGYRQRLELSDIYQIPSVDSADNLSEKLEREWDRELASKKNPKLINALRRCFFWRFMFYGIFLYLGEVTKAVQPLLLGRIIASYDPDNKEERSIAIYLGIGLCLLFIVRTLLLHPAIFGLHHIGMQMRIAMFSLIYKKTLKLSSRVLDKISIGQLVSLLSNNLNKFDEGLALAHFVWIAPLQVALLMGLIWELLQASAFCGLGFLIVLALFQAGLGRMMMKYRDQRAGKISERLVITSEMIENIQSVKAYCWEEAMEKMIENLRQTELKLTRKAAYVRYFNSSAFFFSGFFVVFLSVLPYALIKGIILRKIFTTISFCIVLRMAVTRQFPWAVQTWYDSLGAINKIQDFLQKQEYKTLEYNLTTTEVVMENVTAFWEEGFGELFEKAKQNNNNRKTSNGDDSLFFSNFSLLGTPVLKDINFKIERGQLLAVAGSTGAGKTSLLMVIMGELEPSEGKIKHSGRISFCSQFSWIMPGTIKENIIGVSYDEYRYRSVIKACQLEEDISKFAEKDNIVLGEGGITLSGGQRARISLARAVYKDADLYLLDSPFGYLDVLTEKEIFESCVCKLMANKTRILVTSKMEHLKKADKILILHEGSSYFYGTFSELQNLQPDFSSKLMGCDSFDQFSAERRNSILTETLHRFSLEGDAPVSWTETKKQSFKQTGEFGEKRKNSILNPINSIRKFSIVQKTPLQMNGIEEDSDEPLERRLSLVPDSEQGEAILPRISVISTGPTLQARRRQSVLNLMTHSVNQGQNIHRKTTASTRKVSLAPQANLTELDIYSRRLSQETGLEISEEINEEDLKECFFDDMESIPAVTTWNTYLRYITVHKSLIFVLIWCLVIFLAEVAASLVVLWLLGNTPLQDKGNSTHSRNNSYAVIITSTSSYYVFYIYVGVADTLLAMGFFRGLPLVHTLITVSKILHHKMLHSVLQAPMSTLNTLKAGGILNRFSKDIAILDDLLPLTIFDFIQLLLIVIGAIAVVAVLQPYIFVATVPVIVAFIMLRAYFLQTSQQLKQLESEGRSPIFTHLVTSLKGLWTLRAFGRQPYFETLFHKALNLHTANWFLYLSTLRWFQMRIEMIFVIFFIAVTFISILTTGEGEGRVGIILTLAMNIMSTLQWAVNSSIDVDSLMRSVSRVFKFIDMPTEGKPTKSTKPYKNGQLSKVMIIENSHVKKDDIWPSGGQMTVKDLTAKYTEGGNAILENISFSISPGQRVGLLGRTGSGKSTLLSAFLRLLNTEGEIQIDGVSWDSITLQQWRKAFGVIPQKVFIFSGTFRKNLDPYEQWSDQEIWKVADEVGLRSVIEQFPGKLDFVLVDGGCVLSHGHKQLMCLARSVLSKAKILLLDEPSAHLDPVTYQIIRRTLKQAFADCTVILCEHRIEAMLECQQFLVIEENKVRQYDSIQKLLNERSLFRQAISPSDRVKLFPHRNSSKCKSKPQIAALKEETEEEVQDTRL
CFTR, sequence (P13569 whole entry): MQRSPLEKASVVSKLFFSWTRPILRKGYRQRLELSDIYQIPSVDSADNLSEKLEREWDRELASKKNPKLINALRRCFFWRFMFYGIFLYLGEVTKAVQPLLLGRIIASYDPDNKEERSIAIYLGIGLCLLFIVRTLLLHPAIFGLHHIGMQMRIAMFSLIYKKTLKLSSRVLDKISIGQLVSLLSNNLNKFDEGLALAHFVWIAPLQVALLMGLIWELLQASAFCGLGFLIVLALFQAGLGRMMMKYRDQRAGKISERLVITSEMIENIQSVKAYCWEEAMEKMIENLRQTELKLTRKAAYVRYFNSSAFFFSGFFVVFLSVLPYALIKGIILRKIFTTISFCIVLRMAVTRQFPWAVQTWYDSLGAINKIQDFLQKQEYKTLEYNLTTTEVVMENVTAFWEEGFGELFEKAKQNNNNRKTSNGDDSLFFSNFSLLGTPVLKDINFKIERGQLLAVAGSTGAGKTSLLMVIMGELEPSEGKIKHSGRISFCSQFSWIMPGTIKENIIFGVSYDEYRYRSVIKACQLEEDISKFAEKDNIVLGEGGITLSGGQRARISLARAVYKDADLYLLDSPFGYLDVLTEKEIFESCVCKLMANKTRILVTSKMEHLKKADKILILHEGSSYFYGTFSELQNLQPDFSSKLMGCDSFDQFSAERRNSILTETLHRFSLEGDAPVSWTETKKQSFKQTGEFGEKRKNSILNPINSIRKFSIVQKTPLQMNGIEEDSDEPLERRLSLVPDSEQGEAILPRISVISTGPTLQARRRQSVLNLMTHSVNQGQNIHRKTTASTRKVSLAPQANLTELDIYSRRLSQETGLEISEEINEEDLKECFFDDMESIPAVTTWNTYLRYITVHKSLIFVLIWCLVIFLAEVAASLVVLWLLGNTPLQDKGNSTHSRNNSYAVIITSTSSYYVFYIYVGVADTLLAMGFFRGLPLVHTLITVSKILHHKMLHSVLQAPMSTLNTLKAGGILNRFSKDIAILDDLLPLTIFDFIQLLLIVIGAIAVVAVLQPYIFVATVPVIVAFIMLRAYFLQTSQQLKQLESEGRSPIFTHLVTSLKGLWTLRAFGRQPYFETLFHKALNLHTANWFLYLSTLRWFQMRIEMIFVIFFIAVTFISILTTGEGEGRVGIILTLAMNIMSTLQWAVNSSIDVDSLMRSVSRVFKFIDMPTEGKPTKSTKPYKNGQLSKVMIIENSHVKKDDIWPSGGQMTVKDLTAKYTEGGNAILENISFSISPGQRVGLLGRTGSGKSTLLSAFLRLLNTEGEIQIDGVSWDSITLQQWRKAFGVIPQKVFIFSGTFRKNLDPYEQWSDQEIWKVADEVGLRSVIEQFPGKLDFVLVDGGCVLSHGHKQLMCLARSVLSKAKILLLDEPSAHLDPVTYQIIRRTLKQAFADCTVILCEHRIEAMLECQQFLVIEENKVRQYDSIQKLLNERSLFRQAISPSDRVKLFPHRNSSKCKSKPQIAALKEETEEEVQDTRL

Row | Compound | EC50 (CFTR) [nM] | F [1] [%] | chloride transport (F508del CFTR [2]) | synergy analysis (F508del CFTR [2]; [9]) | synergy analysis (F508del CFTR [2]; [10]) | systemic exposure as the dose increased [3] | safety and tolerability ([4]; monotherapy, up to a dose of 60 mg qd) | safety and tolerability ([4]; up to 20 mg qd in triple combination with Compound II and Compound III) | Dosenormalized exposure, sex comparison [5] | systemic exposure as the dose increased [5] | chloride transport (F508del CFTR [6]) | synergy analysis (F508del CFTR [6]; [9]) | synergy analysis (F508del CFTR [6]; [10]) | F [7] [%] | F [8] [%]
1 | CC1(C)C[C@@H]2CCCNc3cccc(n3)S(=O)(=O)NC(=O)c3ccc(-n4ccc(OCCC5C6(CC6)C56CC6)n4)nc3N1C2 [Compound I, (14S)-8-[3-(2-{Dispiro[2.0.2.1]heptan-7-yl}ethoxy)-1H-pyrazol-1-yl]-12,12-dimethyl-2λ6-thia-3,9,11,18,23-pentaazatetracyclo[17.3.1.111,14.05,10]tetracosa-1(22),5,7,9,19(23),20-hexaene-2,2,4-trione] | < 1000 | 12.9 | modest increase | modestly synergistic | highly synergistic | increased in a more than doseproportional manner | generally safe and well-tolerated | generally safe and well-tolerated | higher in female rats than male rats | increased in a more than doseproportional manner | modest increase | modestly synergistic | highly synergistic | 76.9 | 49.7
2 | CC(C)(C)c1cc(C(C)(C)C)c(NC(=O)c2c[nH]c3ccccc3c2=O)cc1O [Compound III, N-[2,4-bis(1,1-dimethylethyl)-5-hydroxyphenyl]-1,4-dihydro-4-oxoquinoline-3-carboxamide, reference compound] |  |  | strongly potentiated chloride transport in the presence of Compound I or in combination with Compound I/Compound II |  |  |  |  |  |  |  | strongly potentiated chloride transport in the presence of Compound I or in combination with Compound I/Compound II |  |  |  | 
